Structures can show the parent of a compound that is named as a salt. Where two headings read alike, the source gives them in different places.
Legend:
L. tropica promastigotes [1] = assay: Leishmania promastigotes in vitro susceptibility (MTT), L. tropica; assay type: cell-based; conditions: 48 h, at least three independent assays; for IC50: read-out: Promastigotes Susceptibility IC50 ± SEM, L. tropica
[2] = system: L. infantum promastigotes; assay: Leishmania promastigotes in vitro susceptibility (MTT), L. infantum; assay type: cell-based; conditions: 48 h, at least three independent assays; for IC50: read-out: Promastigotes Susceptibility IC50 ± SEM, L. infantum
[3] = In vitro cytotoxicity assessment in THP-1 cell line (MTT); assay type: cell-based, human; conditions: human, THP-1 cells, 48 h, MTT; at least three independent assays; read-out: Cytotoxicity CC50 ± SEM
Experimental: (§1) THP-1 (ATCC® TIB-202TM) human acute monocytic leukemic cell line was obtained from DSMZ, Germany and cultured in RPMI 1640 (Sigma, Darmstadt, Germany) supplemented with 10% (v/v) FBS, 1% (v/v) penicillin-streptomycin (Sigma), and L-glutamine 200 mM (Sigma) at 37 °C, 5% CO2.
(§2) THP-1 cell line was used to calculate the endoperoxide–pyrazole hybrids’ half-maximal cytotoxic concentration (CC50). THP-1 was plated at a final density of 5 × 10^5 cells/mL, in 96-well flat bottom culture plates (VWR), using six different concentrations of the compounds (OZ1, OZ2, T1, T2 and PIR: 800, 400, 200, 100, 50, 25 µM) and amphotericin B (10, 5, 2.5, 1.25, 0.625, 0.313 µM). A blank (RPMI medium alone) and an untreated control (parasites with RPMI medium plus 1% DMSO as vehicle solution) were also included. All the compounds were plated out in quadruplicate and incubated for 48 h at 37 °C ± 1 °C, 5% CO2.
(§3) Following the incubation period, 20 µL per well of MTT was added as described in Section 3.5.2. After absorbance readings, the CC50 values of each compound were determined with GraphPad Prism V 9.0 (Dotmatics, San Diego, CA, USA) as previously described. At least three independent assays were performed.

[4] = system: intracellular amastigotes of L. infantum; assay: Intracellular amastigotes susceptibility in THP-1-derived macrophages (infection index); assay type: cell-based, Leishmania infantum; conditions: for IC50: 72 h, THP-1-derived macrophages, infection index, two independent assays, read-out: Intracellular Amastigote Susceptibility IC50 ± SEM, L. infantum; for SI (selectivity index): SI for amastigote forms = CC50 THP-1 / IC50 L. infantum
Experimental: The in vitro intracellular amastigote assay was performed using a THP1 cell line maintained in complete RPMI at 37 °C, 5% CO2. After 24 h differentiation of 5 × 10^5 cells/mL into macrophages in sterile 16-chamber LabTek slides (Thermo Scientific, Waltham, MA, USA) with 25 ng mL^−1 phorbol myristic acid (PMA, Sigma), cells were washed once with warm RPMI to remove non-differentiated and non-adherent cells and further infected with 5 × 10^6 promastigotes/mL in a 10:1 parasite–macrophage ratio for another 24 h. After this period, slides were gently washed once with warm RPMI to remove non-internalised promastigotes. The compounds 2o, 2t, OZ1•HCl, OZ1•MsOH, and OZ1•TsOH at concentrations ranging 400 µM to 50 µM were added, and the slides were further incubated at 37 °C, 5% CO2 for 72 h. After this period, cells were washed with warm PBS, fixed with methanol (Sigma) and stained with Giemsa 5% (Sigma). AmB was used as positive control, and macrophages cultivated in RPMI medium and DMSO (0.5% v/v) were used as negative control. The infection index was determined by multiplying the percentage of infected cells and the number of amastigotes per infected cell as previously described. The results represent the average of two experiments. The IC50 for each compound was calculated by fitting the data as a non-linear regression with variable slope using a dose–response inhibitory model in the GraphPad Prism V 8.0 (Dotmatics, San Diego, CA, USA) program.
Selectivity index (SI) was determined for each compound as the quotient between the cytotoxicity in cell lines (CC50) and the inhibitory concentration (IC50) (SI = CC50 in mammalian cells/IC50 L. infantum).

L. tropica promastigotes [5] = assay: Morphometric analysis of L. tropica promastigotes (optical microscopy, Giemsa); assay type: cell-based, Leishmania tropica; conditions: 48 h, OZ1 300 µM, OZ2 200 µM; for Body size of L. tropica promastigotes: amphotericin B 0.62 µM; for Morphological alterations of L. tropica promastigotes: Giemsa, 1000×
Experimental: To detect morphological alterations, at the end of the incubation period (48 h), 30 µL of the parasite’s suspension were collected from different treatment concentrations of each compound to prepare smears on glass slides, fixed with methanol, and stained with 5% (v/v) Giemsa (Sigma). Stained slides were examined with bright field in an inverted microscope (Eclipse 80i Nikon, Tokyo, Japan) with 1000× amplification, and images were captured with a Nikon DS-Ri1 camera. Image J (version 1.53k) was used to measure promastigote body and flagellum size of at least 30 parasite samples.
Data were expressed as mean ± standard error of the mean (SEM), and statistical analysis was performed with one-way ANOVA (Bonferoni’s multiple comparisons test) to determine whether differences between means relatively to untreated control were significant at different levels (p < 0.05, p < 0.01, p < 0.001).

THP-1 cell line = assay: In vitro cytotoxicity assessment in THP-1 cell line (MTT); assay type: cell-based, human; conditions: for selectivity (SI values): THP-1 cytotoxicity versus antileishmanial activity of free hybrids (promastigotes); for CC50: THP-1 cells, 48 h, MTT, at least three independent assays, read-out: Cytotoxicity CC50 ± SEM
Experimental: as §1, §2, §3

[6] = Leishmania infantum, Macrophage

`CCOC(=O)C1CCC2(CC1)OOC1(O2)C2CC3CC(C2)CC1C3` (stereo not drawn) [2o, Ethyl dispiro[cyclohexane-1,3′-[1,2,4]trioxolane-5′,2″-tricyclo[3.3.1.1^3,7]decane]-4-carboxylate] gave an IC50 (L. tropica promastigotes [1]; Leishmania tropica) of 156 ± 18 µM, an IC50 ([2]; Leishmania infantum) of 123 ± 1 µM and a CC50 at 48 h [3] of 381 ± 172 µM. For the same compound, the IC50 [4, 6] was 330 ± 48 µM and the “SI (selectivity index)” value [4] was 1.2.

With `CCOC(=O)C1CCC2(CC1)OOC1(OO2)C2CC3CC(C2)CC1C3` (stereo not drawn) [2t, Ethyl dispiro[cyclohexane-1,3′-[1,2,4,5]tetraoxane-6′,2″-tricyclo[3.3.1.1^3,7]decane]-4-carboxylate] the IC50 (L. tropica promastigotes [1]; Leishmania tropica) was 143 ± 9 µM, the IC50 ([2]; Leishmania infantum) was 128 ± 27 µM and the CC50 at 48 h [3] was 374 ± 119 µM. The IC50 [4, 6] was 45 ± 28 µM and the “SI (selectivity index)” value [4] was 8.4.

Compound `C[C@@H]1[C@H](O)[C@@H](C)/C=C/C=C/C=C/C=C/C=C/C=C/C=C/[C@H](O[C@@H]2O[C@H](C)[C@@H](O)[C@H](N)[C@@H]2O)C[C@@H]2O[C@](O)(C[C@@H](O)C[C@@H](O)[C@H](O)CC[C@@H](O)C[C@@H](O)CC(=O)O[C@H]1C)C[C@H](O)[C@H]2C(=O)O` [AmB, Amphotericin B, reference compound] has an IC50 (L. tropica promastigotes [1]; Leishmania tropica) of 0.3 ± 0.1 µM, an IC50 ([2]; Leishmania infantum) of 0.2 ± 0.01 µM and a CC50 at 48 h [3] of 23 ± 3 µM. For the same compound, the IC50 [4, 6] was 0.08 ± 0.05 µM, the “SI (selectivity index)” value [4] was 290 and the “Body size of L. tropica promastigotes” value (L. tropica promastigotes [5]) was 6.463 ± 1.874 µm.

With `Nc1ccnn1C(=O)C1CCC2(CC1)OOC1(O2)C2CC3CC(C2)CC1C3` (stereo not drawn) [OZ1, (5-Amino-1H-pyrazol-1-yl)(dispiro[cyclohexane-1,3′-[1,2,4]trioxolane-5′,2″-tricyclo-[3.3.1.1^3,7]-decan]-4-yl)methanone] the IC50 (L. tropica promastigotes [1]; Leishmania tropica) was 219 ± 25 µM, the “Promastigotes Susceptibility IC50 ± SEM, L. infantum” value [2] was “lack of activity” and the IC50 [2] was > 400 µM. The CC50 at 48 h [3] was 664 ± 163 µM, the “selectivity (SI values)” value (THP-1 cell line) was < 5 and the “Flagellum size of L. tropica promastigotes” value (L. tropica promastigotes [5]) was 13.561 ± 3.535 µm. The “Body size of L. tropica promastigotes” value (L. tropica promastigotes [5]) was 5.265 ± 1.733 µm and the “Morphological alterations of L. tropica promastigotes” value (L. tropica promastigotes [5]) was “considerable damage”.

`Cl.Nc1ccnn1C(=O)C1CCC2(CC1)OOC1(O2)C2CC3CC(C2)CC1C3` (stereo not drawn) [OZ1•HCl, (5-Amino-1H-pyrazol-1-yl) (dispiro[cyclohexane-1,3′-[1,2,4]trioxolane-5′,2″-tricyclo-[3.3.1.1^3,7]-decan]-4-yl) methanone hydrochloride] showed an IC50 (L. tropica promastigotes [1]) of 135 ± 36 µM, an IC50 [2] of 164 ± 20 µM and a CC50 (THP-1 cell line) of 509 ± 155 µM. The “SI (selectivity index)” value [4] was 5.9 and the IC50 [4] was 87 ± 39 µM.

Work on `CS(=O)(=O)O.Nc1ccnn1C(=O)C1CCC2(CC1)OOC1(O2)C2CC3CC(C2)CC1C3` (stereo not drawn) [OZ1•MsOH, (5-Amino-1H-pyrazol-1-yl) (dispiro[cyclohexane-1,3′-[1,2,4]trioxolane-5′,2″-tricyclo-[3.3.1.1^3,7]-decan]-4-yl) methanone mesylate] yielded an IC50 (L. tropica promastigotes [1]) of 198 ± 24 µM, an IC50 [2] of 183 ± 48 µM and a CC50 (THP-1 cell line) of 336 ± 196 µM. The “SI (selectivity index)” value [4] was <0.8 and the IC50 [4] was > 400 µM.

Work on `Nc1ccnn1C(=O)C1CCC2(CC1)OOC1(O2)C2CC3CC(C2)CC1C3` (stereo not drawn) [OZ1•TsOH, (5-Amino-1H-pyrazol-1-yl)(dispiro[cyclohexane-1,3′-[1,2,4]trioxolane-5′,2″-tricyclo-[3.3.1.1^3,7]-decan]-4-yl)methanone p-tosylate] yielded an IC50 (L. tropica promastigotes [1]) of 199 ± 9 µM, an IC50 [2] of 181 ± 35 µM and a CC50 (THP-1 cell line) of 510 ± 109 µM. The “SI (selectivity index)” value [4] was 2.1 and the IC50 [4] was 246 ± 32 µM.

`Nc1ccn(C(=O)C2CCC3(CC2)OOC2(O3)C3CC4CC(C3)CC2C4)n1` (stereo not drawn) [OZ2, (3-Amino-1H-pyrazol-1-yl)(dispiro[cyclohexane-1,3′-[1,2,4]trioxolane-5′,2″-tricyclo[3.3.1.1^3,7]decan]-4-yl)methanone] showed an IC50 (L. tropica promastigotes [1]) of 161 ± 19 µM, an IC50 ([2]; Leishmania infantum) of 219 ± 44 µM and a CC50 (THP-1 cell line) of 202 ± 116 µM. The “selectivity (SI values)” value (THP-1 cell line) was < 5, the “Flagellum size of L. tropica promastigotes” value (L. tropica promastigotes [5]) was 12.404 ± 3.745 µm and the “Body size of L. tropica promastigotes” value (L. tropica promastigotes [5]) was 9.646 ± 2.744 µm. For the same compound, the “Morphological alterations of L. tropica promastigotes” value (L. tropica promastigotes [5]) was “considerable damage”.

For `Nc1ccn(C(=O)C2CCC3(CC2)OOC2(O3)C3CC4CC(C3)CC2C4)n1` (stereo not drawn) [OZ2•HCl, (3-Amino-1H-pyrazol-1-yl) (dispiro[cyclohexane-1,3′-[1,2,4]trioxolane-5′,2″-tricyclo-[3.3.1.1^3,7]decan]-4-yl) methanone hydrochloride], the IC50 (L. tropica promastigotes [1]) was > 400 µM, the IC50 [2] was 258 ± 91 µM and the CC50 (THP-1 cell line) was 425 ± 104 µM.

With `Nc1ccn(C(=O)C2CCC3(CC2)OOC2(O3)C3CC4CC(C3)CC2C4)n1` (stereo not drawn) [OZ2•TsOH, (3-Amino-1H-pyrazol-1-yl) (dispiro[cyclohexane-1,3′-[1,2,4]trioxolane-5′,2″-tricyclo-[3.3.1.1^3,7]decan]-4-yl) methanone p-tosylate] the IC50 (L. tropica promastigotes [1]) was 260 ± 82 µM, the IC50 [2] was 217 ± 47 µM and the CC50 (THP-1 cell line) was 479 ± 83 µM.

For `Nc1cc[nH]n1` [PIR, 3-aminopyrazole, reference compound], the “Promastigotes Susceptibility IC50 ± SEM, L. tropica” value (L. tropica promastigotes [1]) was “devoid of antileishmanial activity”, the IC50 (L. tropica promastigotes [1]; Leishmania tropica) was > 400 µM and the “Promastigotes Susceptibility IC50 ± SEM, L. infantum” value [2] was “devoid of antileishmanial activity”. For the same compound, the IC50 ([2]; Leishmania infantum) was > 400 µM and the CC50 at 48 h [3] was 202 ± 10 µM.

With `Nc1ccn(C(=O)C2CCC3(CC2)OOC2(OO3)C3CC4CC(C3)CC2C4)n1` (stereo not drawn) [T1•HCl, (3-Amino-1H-pyrazol-1-yl) (dispiro[cyclohexane-1,3′-[1,2,4,5]tetraoxane-6′,2″-tricyclo [3.3.1.1^3,7]decan]-4-yl) methanone hydrochloride] the IC50 (L. tropica promastigotes [1]; Leishmania tropica) was > 400 µM, the IC50 ([2]; Leishmania infantum) was > 400 µM and the CC50 (THP-1 cell line) was 529 ± 108 µM.

For `Nc1ccnn1C(=O)C1CCC2(CC1)OOC1(OO2)C2CC3CC(C2)CC1C3` (stereo not drawn) [T1•TsOH, (5-Amino-1H-pyrazol-1-yl) (dispiro[cyclohexane-1,3′-[1,2,4,5]tetraoxane-6′,2″-tricyclo-[3.3.1.1^3,7]-decan]-4-yl) methanone p-tosylate], the IC50 (L. tropica promastigotes [1]) was > 400 µM, the IC50 [2] was > 400 µM and the CC50 (THP-1 cell line) was 331 ± 126 µM.

In the case of `Nc1ccn(C(=O)C2CCC3(CC2)OOC2(OO3)C3CC4CC(C3)CC2C4)n1` (stereo not drawn) [T2•HCl, (3-Amino-1H-pyrazol-1-yl) (dispiro[cyclohexane-1,3′-[1,2,4,5]tetraoxane-6′,2″-tricyclo [3.3.1.1^3,7]decan]-4-yl) methanone hydrochloride], the IC50 (L. tropica promastigotes [1]) is reported as 266 ± 8 µM, the IC50 [2] is reported as 313 ± 40 µM and the CC50 (THP-1 cell line) is reported as 444 ± 22 µM.

Source: paper PMC9457810, “Synthesis, Structure and Antileishmanial Evaluation of Endoperoxide–Pyrazole Hybrids” (Molecules, 2022)
